Paper PMC9080226 (RSC Advances, 2018)

Columns and labels:
COMT in DLS9 [1] = biological target: T1, COMT in DLS9 (Canis lupus familiaris, UniProt Q60F99); assay: Kinetic analysis of 3-BTD methylation in dog liver S9; format: in vitro ADME, beagle dogs; settings: formation of 3-BTMD in DLS9; Vmax/Km
T1 sequence (Q60F99 1-221): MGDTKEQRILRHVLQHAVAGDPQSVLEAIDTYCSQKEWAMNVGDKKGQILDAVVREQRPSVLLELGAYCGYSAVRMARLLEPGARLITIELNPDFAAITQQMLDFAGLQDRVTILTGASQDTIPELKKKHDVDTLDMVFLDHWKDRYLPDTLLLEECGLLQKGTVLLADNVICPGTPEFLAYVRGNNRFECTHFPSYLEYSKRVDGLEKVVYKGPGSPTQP

COMT in GpLS9 [2] = biological target: T2, COMT in GpLS9 (Cavia porcellus, UniProt A0A286XRD6); assay: Kinetic analysis of 3-BTD methylation in guinea pig liver S9; format: in vitro ADME, Dunkin-Hartley guinea pigs; settings: formation of 3-BTMD in GpLS9; Vmax/Km
T2 sequence (A0A286XRD6 1-270): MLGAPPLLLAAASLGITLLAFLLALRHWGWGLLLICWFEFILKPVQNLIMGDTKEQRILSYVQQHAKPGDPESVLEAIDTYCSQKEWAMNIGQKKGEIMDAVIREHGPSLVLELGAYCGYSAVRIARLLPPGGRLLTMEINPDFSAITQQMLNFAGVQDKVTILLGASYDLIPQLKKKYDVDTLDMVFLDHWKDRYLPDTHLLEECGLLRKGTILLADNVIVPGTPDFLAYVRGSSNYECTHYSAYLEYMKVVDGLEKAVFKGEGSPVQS

COMT in MLS9 [3] = biological target: T3, COMT in MLS9 (Mus musculus, UniProt O88587); assay: Kinetic analysis of 3-BTD methylation in mouse liver S9; format: in vitro ADME, ICR/CD-1 mice; settings: formation of 3-BTMD in MLS9; Vmax/Km
T3 sequence (O88587 44-265 limits assumed): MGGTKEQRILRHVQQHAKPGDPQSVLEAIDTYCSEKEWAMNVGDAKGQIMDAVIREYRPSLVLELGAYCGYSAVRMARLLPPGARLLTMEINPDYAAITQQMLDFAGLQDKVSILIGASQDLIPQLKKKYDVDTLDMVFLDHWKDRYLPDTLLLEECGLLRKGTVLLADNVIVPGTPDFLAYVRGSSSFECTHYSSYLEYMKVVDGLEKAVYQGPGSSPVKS

COMT in RaLS9 [4] = biological target: T4, COMT in RaLS9 (Oryctolagus cuniculus, UniProt A0A5F9DQ59); format: in vitro ADME, New Zealand rabbits; settings: formation of 3-BTMD in RaLS9; Vmax/Km
T4 sequence (A0A5F9DQ59 1-268): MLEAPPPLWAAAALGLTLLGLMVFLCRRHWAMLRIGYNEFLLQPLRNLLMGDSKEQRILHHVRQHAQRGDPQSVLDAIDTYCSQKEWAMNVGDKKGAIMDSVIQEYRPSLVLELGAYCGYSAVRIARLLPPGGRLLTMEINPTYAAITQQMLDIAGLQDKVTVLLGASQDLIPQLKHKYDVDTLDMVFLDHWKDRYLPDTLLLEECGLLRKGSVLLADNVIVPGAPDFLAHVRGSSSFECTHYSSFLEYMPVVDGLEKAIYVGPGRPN

COMT in HLS9 = biological target: T5, COMT in HLS9 (Homo sapiens, UniProt P21964); assay: Kinetic analysis of 3-BTD methylation in human liver S9; format: in vitro ADME, humans; settings: formation of 3-BTMD in HLS9; Vmax/Km
T5 sequence (P21964 51-271 limits assumed): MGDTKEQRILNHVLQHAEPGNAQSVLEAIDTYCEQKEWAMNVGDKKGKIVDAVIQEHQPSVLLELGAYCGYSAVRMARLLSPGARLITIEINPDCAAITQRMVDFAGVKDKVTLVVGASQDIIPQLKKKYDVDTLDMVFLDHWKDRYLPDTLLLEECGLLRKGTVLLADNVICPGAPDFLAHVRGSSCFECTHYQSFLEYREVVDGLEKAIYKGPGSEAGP

COMT in RLS9 = biological target: T6, COMT in RLS9 (Rattus norvegicus, UniProt P22734); assay: Kinetic analysis of 3-BTD methylation in rat liver S9; format: in vitro ADME, Sprague-Dawley rats; settings: formation of 3-BTMD in RLS9; Vmax/Km
T6 sequence (P22734 44-264 limits assumed): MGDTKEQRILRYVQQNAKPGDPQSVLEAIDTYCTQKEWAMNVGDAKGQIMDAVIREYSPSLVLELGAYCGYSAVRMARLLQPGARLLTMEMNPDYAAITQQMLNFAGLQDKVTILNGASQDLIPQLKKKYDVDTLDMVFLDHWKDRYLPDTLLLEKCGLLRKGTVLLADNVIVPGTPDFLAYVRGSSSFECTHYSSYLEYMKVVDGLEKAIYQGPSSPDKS

COMT in RaLS9 [5] = tested on: COMT in RaLS9
[6] = tested on: mammalian COMT in liver S9; settings: tolcapone 1000 nM, liver S9 from all the test species
COMT in GpLS9 [7] = biological target: T2, COMT in GpLS9; assay: Chemical inhibition assay of 3-BTD methylation in guinea pig liver S9; format: biochemical, Dunkin-Hartley guinea pigs
COMT in CyLS9 = biological target: T7, COMT in CyLS9 (Macaca fascicularis, UniProt A0A7N9CL08); assay: Chemical inhibition assay of 3-BTD methylation in cynomolgus monkey liver S9
T7 sequence (A0A7N9CL08 1-274): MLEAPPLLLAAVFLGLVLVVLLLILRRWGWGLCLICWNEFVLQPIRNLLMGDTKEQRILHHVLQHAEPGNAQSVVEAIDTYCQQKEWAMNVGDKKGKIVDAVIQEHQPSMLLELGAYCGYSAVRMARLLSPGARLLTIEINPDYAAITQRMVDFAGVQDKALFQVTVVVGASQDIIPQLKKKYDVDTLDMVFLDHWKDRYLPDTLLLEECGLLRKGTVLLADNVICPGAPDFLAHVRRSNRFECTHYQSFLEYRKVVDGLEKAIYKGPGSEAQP

COMT in DLS9 [8] = biological target: T1, COMT in DLS9; assay: Chemical inhibition assay of 3-BTD methylation in dog liver S9; format: biochemical, beagle dogs
COMT in RaLS9 [9] = biological target: T4, COMT in RaLS9; assay: biochemical
COMT in MLS9 [10] = biological target: T3, COMT in MLS9; assay: biochemical

Row | SMILES | Clint (COMT in DLS9 [1]) [µL/min/mg] | Clint (COMT in GpLS9 [2]) [µL/min/mg] | Clint (COMT in MLS9 [3]) [µL/min/mg] | Clint (COMT in RaLS9 [4]) [µL/min/mg] | Clint (COMT in HLS9) [µL/min/mg] | Clint (COMT in RLS9) [µL/min/mg] | inhibitory potency (IC50) in animal liver S9 versus HLS9 (COMT in RaLS9 [5]) [fold] | inhibition of mammalian COMT-mediated 3-BTD methylation [6] | IC50 (COMT in GpLS9 [7]) [nM] | IC50 (COMT in CyLS9; CyLS9 0.2 mg ml^−1, 3-BTD (1 μM) 8-O-methylation as probe reaction, mean ± S.E.) [nM] | inhibitory potency (IC50) in animal liver S9 versus HLS9 (COMT in CyLS9; CyLS9 versus HLS9) [fold] | IC50 (COMT in DLS9 [8]) [nM] | IC50 (COMT in RaLS9 [9]) [nM] | IC50 (COMT in MLS9 [10]) [nM]
1 | O=c1oc2c(O)c(O)ccc2cc1-c1nc2ccccc2s1 [3-BTD, 3-(benzo[d]thiazol-2-yl)-7,8-dihydroxy-2H-chromen-2-one] | 627 | 191 | 523 | 235 | 112 | 763 |  |  |  |  |  |  |  | 
2 | Cc1ccc(C(=O)c2cc(O)c(O)c([N+](=O)[O-])c2)cc1 [tolcapone] |  |  |  |  |  |  | 6.9 | strongly inhibit | 108 ± 7.1 | 18.7 ± 3 | 1.1 | 20.8 ± 2.7 | 117 ± 10.3 | 29 ± 3.9
